# Assay results as given in patent US10919896B2, “Preparation and uses of pyrimidinone derivatives” (Cancer Research Technology Limited, priority 2016, dated 2021).
# Target: Cdc7/ASK (Homo sapiens, UniProt O00311)
# Experiment: Cdc7 Biochemical Assay Method 1: 384 well ELISA, whole protein substrate MCM2, antibody against Phospho MCM2 (S53)
# Parameters: purchased
# Settings: 2 μM ATP, read-out: Biochemical Method 1 (pIC50) (converted)
# Summary of the method: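 MCM2 protein substrate was coated on nickel-chelate plates, then Cdc7/ASK was added with 2 μM ATP in 50 mM Tris-HCl pH 8.5, 10 mM MgCl2, 1 mM DTT, 4% DMSO, 90 min at room temperature. Phospho-MCM2 (S53) was detected by ELISA with an AP secondary and PNPP absorbance. IC50 was derived from % inhibition versus no-compound and no-enzyme controls.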
# Cdc7/ASK, sequence (O00311 whole entry): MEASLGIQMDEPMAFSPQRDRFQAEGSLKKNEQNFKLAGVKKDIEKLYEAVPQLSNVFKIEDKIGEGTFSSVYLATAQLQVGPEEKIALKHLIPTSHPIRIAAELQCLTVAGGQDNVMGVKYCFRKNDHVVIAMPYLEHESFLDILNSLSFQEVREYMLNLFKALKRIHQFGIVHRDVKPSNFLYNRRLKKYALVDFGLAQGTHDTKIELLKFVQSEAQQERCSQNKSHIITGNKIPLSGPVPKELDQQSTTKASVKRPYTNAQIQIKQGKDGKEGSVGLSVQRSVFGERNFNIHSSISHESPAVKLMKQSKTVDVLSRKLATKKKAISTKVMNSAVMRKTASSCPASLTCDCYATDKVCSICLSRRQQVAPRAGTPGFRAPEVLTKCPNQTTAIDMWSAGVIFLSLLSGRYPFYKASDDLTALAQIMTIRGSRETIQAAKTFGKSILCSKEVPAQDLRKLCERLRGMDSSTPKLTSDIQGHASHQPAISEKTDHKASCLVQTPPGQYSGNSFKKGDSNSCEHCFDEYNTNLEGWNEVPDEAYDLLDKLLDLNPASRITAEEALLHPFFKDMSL
# Cdc7/ASK, sequence (Q9UBU7 whole entry partner): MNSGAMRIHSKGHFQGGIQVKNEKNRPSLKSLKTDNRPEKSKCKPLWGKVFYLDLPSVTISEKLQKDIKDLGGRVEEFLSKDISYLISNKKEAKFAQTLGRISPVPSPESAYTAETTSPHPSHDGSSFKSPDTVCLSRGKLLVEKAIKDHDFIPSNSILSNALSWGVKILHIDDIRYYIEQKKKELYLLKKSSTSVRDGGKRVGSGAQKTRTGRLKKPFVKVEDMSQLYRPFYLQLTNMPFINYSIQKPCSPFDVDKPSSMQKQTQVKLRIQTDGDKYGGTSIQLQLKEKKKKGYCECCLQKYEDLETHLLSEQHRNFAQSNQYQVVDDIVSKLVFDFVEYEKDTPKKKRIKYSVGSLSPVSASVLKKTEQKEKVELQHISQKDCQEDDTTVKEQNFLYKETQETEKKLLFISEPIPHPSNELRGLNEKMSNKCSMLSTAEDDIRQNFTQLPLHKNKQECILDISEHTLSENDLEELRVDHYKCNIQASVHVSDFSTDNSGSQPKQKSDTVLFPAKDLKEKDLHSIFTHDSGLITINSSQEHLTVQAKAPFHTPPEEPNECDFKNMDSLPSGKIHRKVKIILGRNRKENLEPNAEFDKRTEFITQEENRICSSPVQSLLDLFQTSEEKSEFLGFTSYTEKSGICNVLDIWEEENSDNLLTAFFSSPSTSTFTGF
row,Structure (SMILES),IC50
1,CC(C)[C@H]1CN(c2nc(-c3ccnc(F)c3)[nH]c(=O)c2Cl)CCN1 [Compound 170],1.1 nM
2,O=c1[nH]c(-c2ccncc2)nc(N2CCN[C@@H](C(F)(F)F)C2)c1Cl [Compound 180],1.45 nM
3,CC(C)(C)[C@H]1CN(c2nc(-c3ccncc3)[nH]c(=O)c2F)CCN1 [Compound 185],0.776 nM
4,O=c1[nH]c(-c2ccncc2)nc(N2CCCOCC2)c1Cl [Compound 186],3.09 nM
5,CC(C)[C@H]1CN(c2nc(-c3ccncc3)[nH]c(=O)c2F)CCN1 [Compound 308],0.794 nM
6,O=c1[nH]c(-c2ccnc(F)c2)nc(N2CCOCC2)c1Cl [Compound 316],1.32 nM
7,O=c1[nH]c(-c2ccnc(F)c2)nc(N2CCNCC2)c1Cl [Compound 360],1.51 nM
8,NC[C@H]1CCCN(c2nc(-c3ccnc(F)c3)[nH]c(=O)c2Cl)C1 [Compound 362],1.66 nM
9,C[C@@H]1CNCCN1c1nc(-c2ccncc2)[nH]c(=O)c1Cl [Compound 364],0.389 nM

# Other lines, results leading:
row,IC50,Structure (SMILES)
1,0.851 nM,"O=c1[nH]c(-c2ccnc(F)c2)nc(N2CCCC(F)(F)C2)c1Cl [Compound 90, 5-chloro-4-(3,3-difluoro-1-piperidyl)-2-(2-fluoro-4-pyridyl)-1H-pyrimidin-6-one]"
2,2.57 nM,C[C@H]1CN(c2nc(-c3ccncc3)[nH]c(=O)c2Cl)CCN1 [Compound 130]
3,9.55 nM,O=c1[nH]c(-c2ccncc2)nc(N2CCN[C@H](C(F)(F)F)C2)c1Cl [Compound 139]
4,4.27 nM,O=c1[nH]c(-c2ccncc2)nc(N2CCN(CC(F)F)CC2)c1Cl [Compound 147]
5,1.12 nM,O=c1[nH]c(-c2ccnc(F)c2)nc(N2CCN[C@@H](C(F)(F)F)C2)c1Cl [Compound 314]
6,4.68 nM,NC[C@@H]1CCCN(c2nc(-c3ccnc(F)c3)[nH]c(=O)c2Cl)C1 [Compound 363]
